Laboratory results from patent publication US20020035061A1, “COMPOSITIONS AND METHODS FOR TREATING INFECTIONS USING CATIONIC PEPTIDES ALONE OR IN COMBINATION WITH ANTIBIOTICS” (priority 1996, published 2002).
Like-named read-outs stand apart in the source and are kept apart here.

How the values were obtained:
Type in all cases: cell-based
[1] = system: S. aureus
[2] = system: P. aeruginosa
[3] = system: E. faecium
[4] = system: A. calcoaceticus
[5] = system: S. marcescens
[6] = system: S. epidermidis
[7] = system: K. pneumoniae
[8] = system: E. faecalis
[9] = system: S. maltophilia
[10] = system: E. coli
[11] = system: E. cloacae
[12] = system: microorganisms with acquired resistance; experiment: microbe, parasite or virus in culture; settings: for Peptide MIC Alone: Ceftriaxone section; for FIC: peptide + Ceftriaxone
[13] = system: inherently resistant microorganisms; experiment: microbe, parasite or virus in culture; settings: P. aeruginosa
[14] = system: bacterial isolates; experiment: microbe, parasite or virus in culture; settings: for Peptide MIC Alone: 2. Ceftriaxone; for FIC: peptide + Ceftriaxone

In the case of ILKKWPWWVWRRK [MBI 11F2CN], the MIC ([1]; S. aureus strain SA012) is reported as 4 µg/mL, the MIC ([2]; P. aeruginosa strain PA005) is reported as >128 µg/mL and the MIC ([3]; E. faecium strain EFM002) is reported as 4 µg/mL. For the same sequence, the MIC ([4]; A. calcoaceticus strain AC002) was 4 µg/mL, the MIC ([5]; S. marcescens strain SMS004) was >128 µg/mL and the MIC ([6]; S. epidermidis strain SE002) was 4 µg/mL. The MIC ([7]; K. pneumoniae strain KP002) was 128 µg/mL, the MIC ([8]; E. faecalis strain EFS002) was 32 µg/mL and the MIC ([9]; S. maltophilia strain SMA002) was 64 µg/mL. It also gave an MIC ([10]; E. coli strain ECO002) of 8 µg/mL.

Sequence ILKKWPWWWRK [MBI 11D15CN] has an MIC ([1]; S. aureus strain SA009) of 8 µg/mL, an MIC ([3]; E. faecium strain EFM003) of 4 µg/mL and an MIC ([8]; E. faecalis strain EFS002) of 32 µg/mL.

In the case of ILKKWWWPWRK [MBI 11D14CN], the MIC ([1]; S. aureus strain SA009) is reported as 4 µg/mL, the MIC ([3]; E. faecium strain EFM003) is reported as 1 µg/mL and the MIC ([8]; E. faecalis strain EFS002) is reported as 32 µg/mL.

For ILKKYPWYPWRRK [MBI 11A5CN], the MIC ([1]; S. aureus strain SA002) was 16 µg/mL, the MIC ([2]; P. aeruginosa strain PA003) was >128 µg/mL and the MIC ([3]; E. faecium strain EFM003) was 4 µg/mL. The MIC ([4]; A. calcoaceticus strain AC001) was >128 µg/mL, the MIC ([11]; E. cloacae strain ECL007) was >128 µg/mL and the MIC ([5]; S. marcescens strain SMS003) was >128 µg/mL. For the same sequence, the MIC ([7]; K. pneumoniae strain KP001) was >128 µg/mL, the MIC ([8]; E. faecalis strain EFS002) was 32 µg/mL and the MIC ([9]; S. maltophilia strain SMA002) was >128 µg/mL. It also gave an MIC ([10]; E. coli strain ECO003) of 128 µg/mL.

For ILKWPWWPWRRK [MBI 11B3CN], the MIC ([1]; S. aureus strain SA010) was 4 µg/mL, the MIC ([2]; P. aeruginosa strain PA003) was >128 µg/mL and the MIC ([3]; E. faecium strain EFM001) was 8 µg/mL. The MIC ([4]; A. calcoaceticus strain AC001) was 64 µg/mL, the MIC ([11]; E. cloacae strain ECL007) was >128 µg/mL and the MIC ([5]; S. marcescens strain SMS004) was >128 µg/mL. For the same sequence, the MIC ([7]; K. pneumoniae strain KP002) was 64 µg/mL, the MIC ([8]; E. faecalis strain EFS001) was 16 µg/mL and the MIC ([9]; S. maltophilia strain SMA002) was 32 µg/mL. The MIC ([10]; E. coli strain ECO002) was 16 µg/mL.

With ILRRWPWWPWRK [MBI 11B2CN] the MIC ([1]; S. aureus strain SA005) was 2 µg/mL, the MIC ([2]; P. aeruginosa strain PA003) was >128 µg/mL and the MIC ([3]; E. faecium strain EFM001) was 8 µg/mL. The MIC ([4]; A. calcoaceticus strain AC001) was 64 µg/mL, the MIC ([11]; E. cloacae strain ECL007) was >128 µg/mL and the MIC ([5]; S. marcescens strain SMS004) was >128 µg/mL. The MIC ([7]; K. pneumoniae strain KP002) was 64 µg/mL, the MIC ([8]; E. faecalis strain EFS004) was 8 µg/mL and the MIC ([9]; S. maltophilia strain SMA002) was 64 µg/mL. It also gave an MIC ([10]; E. coli strain ECO003) of 16 µg/mL.

PWWPWRRK [MBI 11D3CN] was tested, and the MIC ([1]; S. aureus strain SA009) was 8 µg/mL, the MIC ([2]; P. aeruginosa strain PA024) was >128 µg/mL and the MIC ([3]; E. faecium strain EFM003) was 8 µg/mL. The MIC ([4]; A. calcoaceticus strain AC001) was >128 µg/mL, the MIC ([11]; E. cloacae strain ECL007) was >128 µg/mL and the MIC ([5]; S. marcescens strain SMS004) was >128 µg/mL. For the same sequence, the MIC ([7]; K. pneumoniae strain KP002) was >128 µg/mL, the MIC ([8]; E. faecalis strain EFS002) was 32 µg/mL and the MIC ([9]; S. maltophilia strain SMA001) was 64 µg/mL. For the same sequence, the MIC ([10]; E. coli strain ECO002) was 64 µg/mL.

With WRWWKPKWRWPKW [MBI 11J02CN] the MIC ([1]; S. aureus SA014) was 2 µg/mL, the MIC ([1]; S. aureus SA093) was 1 µg/mL and the “Ceftriaxone MIC + Peptide” value ([12]; A. baumannii ABI005) was 8 µg/mL. For the same sequence, the “Peptide MIC + Ceftriaxone” value ([12]; A. baumannii ABI005) was 0.5 µg/mL, the “Peptide MIC Alone” value ([12]; A. baumannii ABI005) was 8 µg/mL and the “Ceftriaxone MIC + Peptide” value ([12]; A. lwoffii ALW007) was 4 µg/mL. For the same sequence, the “Peptide MIC + Ceftriaxone” value ([12]; A. lwoffii ALW007) was 2 µg/mL, the “Peptide MIC Alone” value ([12]; A. lwoffii ALW007) was 4 µg/mL and the “Ceftriaxone MIC + Peptide” value ([12]; B. cepacia BC003) was 8 µg/mL. For the same sequence, the “Peptide MIC + Ceftriaxone” value ([12]; B. cepacia BC003) was 32 µg/mL, the “Peptide MIC Alone” value ([12]; B. cepacia BC003) was >128 µg/mL and the “Ceftriaxone MIC + Peptide” value ([12]; E. cloacae ECL014) was 0.25 µg/mL. For the same sequence, the “Peptide MIC + Ceftriaxone” value ([12]; E. cloacae ECL014) was 16 µg/mL, the “Peptide MIC Alone” value ([12]; E. cloacae ECL014) was 32 µg/mL and the “Ceftriaxone MIC + Peptide” value ([12]; E. cloacae ECL015) was 1 µg/mL. The “Peptide MIC + Ceftriaxone” value ([12]; E. cloacae ECL015) was 16 µg/mL, the “Peptide MIC Alone” value ([12]; E. cloacae ECL015) was 32 µg/mL and the FIC ([12]; A. baumannii ABI005) was 0.56. For the same sequence, the FIC ([12]; A. lwoffii ALW007) was 0.75, the FIC ([12]; B. cepacia BC003) was 0.63 and the FIC ([12]; E. cloacae ECL014) was 0.50. The FIC ([12]; E. cloacae ECL015) was 0.52, the MIC ([2]; P. aeruginosa PA004) was 32 µg/mL and the “Peptide MIC + Ceftriaxone” value [13] was 32 µg/mL. For the same sequence, the “Peptide MIC Alone” value ([13]; Ceftriaxone section) was 64 µg/mL, the MIC ([4]; A. calcoaceticus AC002) was 4 µg/mL and the MIC ([11]; E. cloacae ECL007) was 64 µg/mL. The MIC ([5]; S. marcescens SMS003) was >128 µg/mL, the MIC ([6]; S. epidermidis SE010) was 2 µg/mL and the MIC ([7]; K. pneumoniae KP001) was 4 µg/mL. It also gave an MIC ([8]; E. faecalis EFS001) of 4 µg/mL, an MIC ([8]; E. faecalis EFS008) of 16 µg/mL and an MIC ([9]; S. maltophilia SMA002) of 8 µg/mL. For the same sequence, the “Peptide MIC Alone” value ([14]; A. baumannii ABI005) was 8 µg/mL, the “Peptide MIC Alone” value ([14]; B. cepacia BC003) was >128 µg/mL and the “Peptide MIC Alone” value ([14]; E. cloacae ECL014) was 32 µg/mL. For the same sequence, the “Peptide MIC Alone” value ([14]; E. cloacae ECL015) was 32 µg/mL, the “Peptide MIC Alone” value ([14]; P. aeruginosa PA008) was 64 µg/mL and the “Peptide MIC Alone” value ([14]; P. aeruginosa PA039) was 64 µg/mL. The “Peptide MIC Alone” value ([14]; S. aureus SA025 MRSA) was 2 µg/mL, the “Peptide MIC Alone” value ([14]; S. epidermidis SE012) was 4 µg/mL and the “Peptide MIC Alone” value ([14]; S. epidermidis SE073) was 4 µg/mL. For the same sequence, the “Ceftriaxone MIC + Peptide” value ([14]; A. baumannii ABI005) was 8 µg/mL, the “Peptide MIC + Ceftriaxone” value ([14]; A. baumannii ABI005) was 0.5 µg/mL and the “Ceftriaxone MIC + Peptide” value ([14]; B. cepacia BC003) was 4 µg/mL. For the same sequence, the “Peptide MIC + Ceftriaxone” value ([14]; B. cepacia BC003) was 64 µg/mL, the “Ceftriaxone MIC + Peptide” value ([14]; E. cloacae ECL014) was 16 µg/mL and the “Peptide MIC + Ceftriaxone” value ([14]; E. cloacae ECL014) was 8 µg/mL. For the same sequence, the “Ceftriaxone MIC + Peptide” value ([14]; E. cloacae ECL015) was 16 µg/mL, the “Peptide MIC + Ceftriaxone” value ([14]; E. cloacae ECL015) was 8 µg/mL and the “Ceftriaxone MIC + Peptide” value ([14]; P. aeruginosa PA008) was 0.125 µg/mL. For the same sequence, the “Peptide MIC + Ceftriaxone” value ([14]; P. aeruginosa PA008) was 32 µg/mL, the “Ceftriaxone MIC + Peptide” value ([14]; P. aeruginosa PA039) was 16 µg/mL and the “Peptide MIC + Ceftriaxone” value ([14]; P. aeruginosa PA039) was 16 µg/mL. For the same sequence, the “Ceftriaxone MIC + Peptide” value ([14]; S. aureus SA025 MRSA) was 0.125 µg/mL, the “Peptide MIC + Ceftriaxone” value ([14]; S. aureus SA025 MRSA) was 1 µg/mL and the “Ceftriaxone MIC + Peptide” value ([14]; S. epidermidis SE012) was 16 µg/mL. The “Peptide MIC + Ceftriaxone” value ([14]; S. epidermidis SE012) was 1 µg/mL, the “Ceftriaxone MIC + Peptide” value ([14]; S. epidermidis SE073) was 16 µg/mL and the “Peptide MIC + Ceftriaxone” value ([14]; S. epidermidis SE073) was 1 µg/mL. It also gave an FIC ([14]; A. baumannii ABI005) of 0.56, an FIC ([14]; B. cepacia BC003) of 0.50 and an FIC ([14]; E. cloacae ECL014) of 0.38. For the same sequence, the FIC ([14]; E. cloacae ECL015) was 0.50, the FIC ([14]; P. aeruginosa PA008) was 0.50 and the FIC ([14]; P. aeruginosa PA039) was 0.50. For the same sequence, the FIC ([14]; S. aureus SA025 MRSA) was 0.52, the FIC ([14]; S. epidermidis SE012) was 0.50 and the FIC ([14]; S. epidermidis SE073) was 0.38. For the same sequence, the MIC ([10]; E. coli ECO005) was 4 µg/mL.
